{"source": "patent US12036281B2", "about": "(ONEHEALTHCOMPANY, INC., priority 2019, dated 2024)", "key": {"[1]": {"test": "Number and type of adverse effects reported in treated canines", "assay_type": "in vivo", "conditions": "canine subjects with cancer; for subjects with clinically reported outcomes that experienced adverse effects: diarrhea, vomiting, inappetence, lethargy, skin lesions, liver enzymes, cardiac toxicity, hemorrhagic gastroenteritis monitored, cohorts 192, 94, 162, 275, 89, 83, 9 subjects", "experimental": "Canine subjects with cancer were treated with pharmaceutical compositions comprising Rapamycin and were monitored for adverse effects including: diarrhea, vomiting inappetence, lethargy, skin lesions, progressive liver enzyme evaluations, increased cardiac toxicity and hemorrhagic gastroenteritis.\nCanine subjects with cancer were treated with pharmaceutical compositions comprising Dasatinib and were monitored for adverse effects including: diarrhea, vomiting inappetence, lethargy, skin lesions, progressive liver enzyme evaluations, increased cardiac toxicity and hemorrhagic gastroenteritis.\nCanine subjects with cancer were treated with pharmaceutical compositions comprising Vorinostat and were monitored for adverse effects including: diarrhea, vomiting inappetence, lethargy, skin lesions, progressive liver enzyme evaluations, increased cardiac toxicity and hemorrhagic gastroenteritis.\nCanine subjects with cancer were treated with pharmaceutical compositions comprising Crizotinib and were monitored for adverse effects including: diarrhea, vomiting inappetence, lethargy, skin lesions, progressive liver enzyme evaluations, increased cardiac toxicity and hemorrhagic gastroenteritis.\nCanine subjects with cancer were treated with pharmaceutical compositions comprising Sorafenib and were monitored for adverse effects including: diarrhea, vomiting inappetence, lethargy, skin lesions, progressive liver enzyme evaluations, increased cardiac toxicity and hemorrhagic gastroenteritis."}, "cancer": {"system": "cancer", "test": "Treatment of canine cancers with targeted drug, disease progression and overall survival compared to historical controls", "assay_type": "in vivo", "conditions": "alone or in combination with other anti-cancer agents", "experimental": "(§1) Canine subjects with cancer were treated with Rapamycin alone or in combination with other anti-cancer agents (Tables 3 and 12-26). The subjects were administered Rapamycin orally with a starting dose of 0.1 mg/kg/day and were monitored for disease progression compared to historical controls.\nCanine subjects with cancer were treated with Dasatinib alone or in combination with other anti-cancer agents (Tables 4 and 12-26). The subjects were administered Dasatinib orally with a starting dose of 0.5-0.7 mg/kg/day and were monitored for disease progression compared to historical controls.\nas §1, with “Vorinostat” for “Rapamycin”, “7” for “3”, “30-60 mg/kg/every other day” for “0.1 mg/kg/day”\nas §1, with “Crizotinib” for “Rapamycin”, “(Table 9” for “(Tables 3”, “1 mg/kg/day-2” for “0.1”\nas §1, with “Sorafenib” for “Rapamycin”, “10” for “3”, “1 mg/kg/day-3” for “0.1”, “mg/kg/day or 1 mg/kg/day-3 mg/kg/week” for “mg/kg/day”"}}}
{"smiles": "C[C@@H](Oc1cc(-c2cnn(C3CCNCC3)c2)cnc1N)c1c(Cl)ccc(F)c1Cl", "note": "[Crizotinib]", "values": [{"measurement": "subjects with clinically reported outcomes that experienced adverse effects", "setting": "[1]", "result": 43, "unit": "%"}, {"measurement": "overall survival compared to control subjects", "setting": "cancer; Crizotinib orally, starting dose 1 mg/kg/day-2 mg/kg/day", "result": "significant improvement"}]}
{"smiles": "Cc1nc(Nc2ncc(C(=O)Nc3c(C)cccc3Cl)s2)cc(N2CCN(CCO)CC2)n1", "note": "[Dasatinib]", "values": [{"measurement": "subjects with clinically reported outcomes that experienced adverse effects", "setting": "[1]", "result": 31, "unit": "%"}]}
{"smiles": "Cc1ccc(NC(=O)c2ccc(CN3CCN(C)CC3)cc2)cc1Nc1nccc(-c2cccnc2)n1", "note": "[Imatinib]", "values": [{"measurement": "overall survival compared to control subjects", "setting": "cancer; Imatinib orally, starting dose 10 mg/kg/day", "result": "significant improvement"}]}
{"smiles": "CS(=O)(=O)CCNCc1ccc(-c2ccc3ncnc(Nc4ccc(OCc5cccc(F)c5)c(Cl)c4)c3c2)o1", "note": "[Lapatinib]", "values": [{"measurement": "subjects with clinically reported outcomes that experienced adverse effects", "setting": "[1]", "result": 22, "unit": "%"}, {"measurement": "overall survival compared to control subjects", "setting": "cancer; Lapatinib orally, starting dose 5-10 mg/kg/day", "result": "significant improvement"}]}
{"smiles": "CO[C@H]1C[C@@H]2CC[C@@H](C)[C@@](O)(O2)C(=O)C(=O)N2CCCC[C@H]2C(=O)O[C@H]([C@H](C)C[C@@H]2CC[C@@H](O)[C@H](OC)C2)CC(=O)[C@H](C)/C=C(\\C)[C@@H](O)[C@@H](OC)C(=O)[C@H](C)C[C@H](C)/C=C/C=C/C=C/1C", "note": "[Rapamycin]", "values": [{"measurement": "subjects with clinically reported outcomes that experienced adverse effects", "setting": "[1]", "result": 21, "unit": "%"}]}
{"smiles": "CNC(=O)c1cc(Oc2ccc(NC(=O)Nc3ccc(Cl)c(C(F)(F)F)c3)cc2)ccn1", "note": "[Sorafenib]", "values": [{"measurement": "subjects with clinically reported outcomes that experience adverse effects", "setting": "[1]; result in words", "result": "A minority of subjects"}, {"measurement": "overall survival compared to control subjects", "setting": "cancer; Sorafenib orally, starting dose 1 mg/kg/day-3 mg/kg/day or 1 mg/kg/day-3 mg/kg/week", "result": "significant improvement"}]}
{"smiles": "CC(=O)Nc1cccc(-n2c(=O)n(C3CC3)c(=O)c3c(Nc4ccc(I)cc4F)n(C)c(=O)c(C)c32)c1", "note": "[Trametinib]", "values": [{"measurement": "subjects with clinically reported outcomes that experienced adverse effects", "setting": "[1]", "result": 24, "unit": "%"}]}
{"smiles": "O=C(CCCCCCC(=O)Nc1ccccc1)NO", "note": "[Vorinostat]", "values": [{"measurement": "subjects with clinically reported outcomes that experienced adverse effects", "setting": "[1]", "result": 34, "unit": "%"}, {"measurement": "overall survival compared to control subjects", "setting": "cancer; Vorinostat orally, starting dose 30-60 mg/kg/every other day", "result": "significant improvement"}]}
